Measurements taken from ChEMBL document CHEMBL1144814, “5-Sulfonyl-benzimidazoles as selective CB2 agonists” (Bioorg Med Chem Lett, 2008).

Assays:
Cannabinoid receptor 2 = Cannabinoid receptor 2 (Homo sapiens, UniProt P34972); experiment: Agonist activity at human CB2 receptor; type: functional
[1] = Ratio of EC50 for CB2 receptor to EC50 for CB1 receptor (unknow origin)
[2] = Metabolism in human liver microsomes after 15 mins
[3] = target: T1, Cannabinoid receptor 2 (Rattus norvegicus) (UniProt Q9QZN9); experiment: Agonist activity at rat CB2 receptor; type: functional
T1 sequence (whole entry): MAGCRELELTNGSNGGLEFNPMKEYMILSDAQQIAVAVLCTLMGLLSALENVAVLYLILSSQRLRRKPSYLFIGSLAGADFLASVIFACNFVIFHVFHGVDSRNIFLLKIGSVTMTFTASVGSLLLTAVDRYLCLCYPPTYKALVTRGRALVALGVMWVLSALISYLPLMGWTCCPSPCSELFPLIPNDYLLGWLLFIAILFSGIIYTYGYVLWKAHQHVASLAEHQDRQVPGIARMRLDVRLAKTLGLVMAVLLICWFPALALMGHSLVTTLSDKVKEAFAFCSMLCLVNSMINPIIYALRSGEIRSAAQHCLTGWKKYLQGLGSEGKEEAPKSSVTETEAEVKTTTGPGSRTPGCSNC

Cytochrome P450 1A2 = target: T2, Cytochrome P450 1A2 (Homo sapiens, UniProt P05177); experiment: Inhibition of CYP1A2; type: ADME
T2 sequence (P05177 whole entry): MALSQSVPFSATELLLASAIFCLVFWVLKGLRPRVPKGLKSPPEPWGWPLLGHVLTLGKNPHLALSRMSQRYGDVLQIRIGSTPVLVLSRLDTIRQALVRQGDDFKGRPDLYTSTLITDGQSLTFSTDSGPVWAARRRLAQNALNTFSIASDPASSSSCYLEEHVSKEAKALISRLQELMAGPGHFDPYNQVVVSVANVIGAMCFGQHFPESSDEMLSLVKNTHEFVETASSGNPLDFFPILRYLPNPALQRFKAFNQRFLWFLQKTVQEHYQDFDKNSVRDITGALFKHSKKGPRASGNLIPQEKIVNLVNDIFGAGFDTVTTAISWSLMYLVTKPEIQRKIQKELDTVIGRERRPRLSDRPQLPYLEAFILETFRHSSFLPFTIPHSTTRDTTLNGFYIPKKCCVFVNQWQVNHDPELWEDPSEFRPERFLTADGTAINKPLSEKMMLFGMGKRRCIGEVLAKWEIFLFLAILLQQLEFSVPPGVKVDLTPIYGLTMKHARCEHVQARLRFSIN

Cytochrome P450 2C19 = Cytochrome P450 2C19 (Homo sapiens, UniProt P33261); experiment: Inhibition of CYP2C19; type: ADME
Sequence of Cytochrome P450 2C19 (P33261 whole entry): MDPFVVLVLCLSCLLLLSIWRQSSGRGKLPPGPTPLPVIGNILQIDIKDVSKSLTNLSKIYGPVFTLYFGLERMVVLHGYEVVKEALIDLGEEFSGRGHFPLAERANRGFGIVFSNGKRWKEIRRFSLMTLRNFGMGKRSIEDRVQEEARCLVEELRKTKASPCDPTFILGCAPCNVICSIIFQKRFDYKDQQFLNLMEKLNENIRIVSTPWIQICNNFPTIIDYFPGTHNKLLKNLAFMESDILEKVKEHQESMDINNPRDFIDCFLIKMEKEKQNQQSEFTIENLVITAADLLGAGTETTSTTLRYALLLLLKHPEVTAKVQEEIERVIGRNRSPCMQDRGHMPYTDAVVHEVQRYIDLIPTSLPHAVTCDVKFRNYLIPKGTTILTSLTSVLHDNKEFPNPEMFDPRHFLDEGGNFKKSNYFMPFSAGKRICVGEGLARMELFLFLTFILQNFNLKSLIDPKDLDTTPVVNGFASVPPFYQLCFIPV

Cytochrome P450 2C9 = Cytochrome P450 2C9 (Homo sapiens, UniProt P11712); experiment: Inhibition of CYP2C9; type: ADME
Sequence of Cytochrome P450 2C9 (P11712 whole entry): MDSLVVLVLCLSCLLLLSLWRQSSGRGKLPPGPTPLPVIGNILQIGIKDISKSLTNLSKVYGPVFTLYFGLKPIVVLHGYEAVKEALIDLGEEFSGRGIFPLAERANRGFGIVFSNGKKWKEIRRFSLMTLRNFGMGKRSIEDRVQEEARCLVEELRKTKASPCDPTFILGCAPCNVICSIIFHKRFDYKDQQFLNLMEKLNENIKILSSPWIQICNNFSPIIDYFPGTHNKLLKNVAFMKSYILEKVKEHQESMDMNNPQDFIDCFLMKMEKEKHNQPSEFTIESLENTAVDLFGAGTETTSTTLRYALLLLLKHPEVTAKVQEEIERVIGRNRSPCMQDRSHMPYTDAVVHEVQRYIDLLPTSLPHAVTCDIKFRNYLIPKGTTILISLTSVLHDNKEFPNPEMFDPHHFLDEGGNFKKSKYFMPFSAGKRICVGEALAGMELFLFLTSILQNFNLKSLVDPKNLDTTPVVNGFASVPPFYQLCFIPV

Cytochrome P450 2D6 = Cytochrome P450 2D6 (Homo sapiens, UniProt P10635); experiment: Inhibition of CYP2D6; type: ADME
Sequence of Cytochrome P450 2D6 (P10635 whole entry): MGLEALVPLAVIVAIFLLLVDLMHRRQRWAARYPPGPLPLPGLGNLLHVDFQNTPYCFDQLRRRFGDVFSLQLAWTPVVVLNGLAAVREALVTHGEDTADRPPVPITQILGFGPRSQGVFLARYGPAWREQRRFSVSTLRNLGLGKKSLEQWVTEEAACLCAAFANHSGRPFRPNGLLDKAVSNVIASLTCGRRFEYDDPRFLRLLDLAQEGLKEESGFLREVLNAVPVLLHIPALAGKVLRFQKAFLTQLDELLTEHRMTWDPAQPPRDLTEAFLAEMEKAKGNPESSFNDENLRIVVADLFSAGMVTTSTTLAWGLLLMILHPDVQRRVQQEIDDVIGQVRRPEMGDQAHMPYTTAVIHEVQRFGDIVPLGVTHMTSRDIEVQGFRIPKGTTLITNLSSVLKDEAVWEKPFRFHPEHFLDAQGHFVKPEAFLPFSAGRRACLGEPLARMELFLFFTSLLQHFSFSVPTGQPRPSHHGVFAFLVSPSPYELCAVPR

Cytochrome P450 3A4 = Cytochrome P450 3A4 (Homo sapiens, UniProt P08684); experiment: Inhibition of CYP3A4; type: ADME
Sequence of Cytochrome P450 3A4 (P08684 whole entry): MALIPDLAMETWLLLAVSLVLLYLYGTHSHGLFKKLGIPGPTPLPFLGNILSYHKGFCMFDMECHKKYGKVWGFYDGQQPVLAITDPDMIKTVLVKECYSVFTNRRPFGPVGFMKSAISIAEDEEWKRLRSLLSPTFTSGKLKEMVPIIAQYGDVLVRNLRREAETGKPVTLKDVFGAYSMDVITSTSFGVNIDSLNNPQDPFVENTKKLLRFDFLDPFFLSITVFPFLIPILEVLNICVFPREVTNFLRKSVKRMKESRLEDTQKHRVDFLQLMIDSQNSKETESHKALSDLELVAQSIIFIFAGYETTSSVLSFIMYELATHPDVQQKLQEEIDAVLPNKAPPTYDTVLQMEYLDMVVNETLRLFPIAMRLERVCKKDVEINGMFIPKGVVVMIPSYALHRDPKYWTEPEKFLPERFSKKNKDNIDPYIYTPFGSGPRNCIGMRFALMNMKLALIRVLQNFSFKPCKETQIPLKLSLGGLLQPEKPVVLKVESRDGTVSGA

[4] = Solubility at pH 7.4; type: physicochemical; details: buffer
[5] = Solubility at pH 4; type: physicochemical; details: buffer
[6] = Oral bioavailability in Sprague-Dawley rat at 10 mg/kg; type: ADME, organism-based; details: in vivo
[7] = Ratio of drug level in brain to plasma in Sprague-Dawley rat at 10 mg/kg, po; type: ADME, organism-based; set-up: dose 10 mg/kg, route oral; details: read-out: BPR
[8] = Cmax in Sprague-Dawley rat at 10 mg/kg, po; type: ADME, organism-based; set-up: dose 10 mg/kg, route oral; details: in vivo
[9] = Tmax in Sprague-Dawley rat at 10 mg/kg, po; type: ADME, organism-based; set-up: dose 10 mg/kg, route oral; details: in vivo
[10] = Half life in Sprague-Dawley rat at 10 mg/kg, po; type: ADME, organism-based; set-up: dose 10 mg/kg, route oral; details: in vivo
[11] = AUC (0 to infinity) in Sprague-Dawley rat at 10 mg/kg, po; type: ADME, organism-based; set-up: time infinity, dose 10 mg/kg, route oral; details: plasma
Rattus norvegicus = experiment: Induction of CB1-mediated side effects in Sprague-Dawley rat at 40 mg/kg, po by tetrad test; type: organism-based; set-up: dose 40 mg/kg, route oral; details: in vivo
CYP2C19 = CYP2C19 (Homo sapiens, UniProt P33261); experiment: Inhibition of CYP2C19 at 10 uM; type: ADME
Sequence of CYP2C19 (P33261 whole entry): as the sequence (P33261 whole entry) above

CYP2C9 = CYP2C9 (Homo sapiens, UniProt P11712); experiment: Inhibition of CYP2C9 at 10 uM; type: ADME
Sequence of CYP2C9 (P11712 whole entry): as the sequence (P11712 whole entry) above

[12] = Fraction of dose absorbed in Sprague-Dawley rat at 10 mg/kg, po; type: ADME, organism-based; set-up: dose 10 mg/kg, route oral; details: in vivo, read-out: Fabs

Sequence of Cannabinoid receptor 2 (P34972 whole entry): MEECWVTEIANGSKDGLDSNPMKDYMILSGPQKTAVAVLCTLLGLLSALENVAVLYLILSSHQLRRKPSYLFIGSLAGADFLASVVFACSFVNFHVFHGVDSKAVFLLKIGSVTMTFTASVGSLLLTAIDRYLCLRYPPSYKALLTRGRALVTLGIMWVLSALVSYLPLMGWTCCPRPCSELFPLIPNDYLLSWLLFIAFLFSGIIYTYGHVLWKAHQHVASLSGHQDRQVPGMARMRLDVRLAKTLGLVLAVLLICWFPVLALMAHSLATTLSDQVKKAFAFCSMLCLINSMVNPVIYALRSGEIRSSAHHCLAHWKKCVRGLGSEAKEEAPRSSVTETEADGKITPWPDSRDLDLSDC

CCOc1ccc(Cc2nc3cc([S+]([O-])CC)c(Cl)cc3n2CC2CCOCC2)cc1 (configuration not stated)
EC50 (Cannabinoid receptor 2): 20 nM | Ratio EC50 [1]: 484 | metabolized at 0.25 h [2]: 95%

CCOc1ccc(Cc2nc3cc(SCC)c(Cl)cc3[nH]2)cc1
EC50 (Cannabinoid receptor 2): 2000 nM

CCS(=O)(=O)c1ccc2c(c1)nc(C(C)(C)C)n2CC1CCCCC1
EC50 (Cannabinoid receptor 2): 0.8 nM | Efficacy (Cannabinoid receptor 2): 104%

CC(C)(C)c1nc2cc(S(=O)(=O)c3ccc(CN)cc3)ccc2n1CC1CCOCC1
EC50 (Cannabinoid receptor 2): 5 nM | Ratio EC50 [1]: 363

CCOc1ccc(Cc2nc3cc(SCC)c(Cl)cc3n2CC2CCOCC2)cc1
EC50 (Cannabinoid receptor 2): 4 nM | Ratio EC50 [1]: 75 | metabolized at 0.25 h [2]: 98%

CCS(=O)(=O)c1ccc2c(c1)nc(CC(C)C)n2CC1CCOCC1
EC50 (Cannabinoid receptor 2): 4 nM | Efficacy (Cannabinoid receptor 2): 101% | Efficacy [3]: 43%

CCOc1ccc(Cc2nc3cc(S(=O)(=O)CC)c(Cl)cc3n2CC2CCOCC2)cc1
EC50 (Cannabinoid receptor 2): 20 nM | Ratio EC50 [1]: 537 | metabolized at 0.25 h [2]: 66%

CCS(=O)(=O)c1ccc2c(c1)nc(C(C)(C)C)n2CC1CCOCC1
EC50 (Cannabinoid receptor 2): 1.2 nM | Efficacy (Cannabinoid receptor 2): 120% | Ratio EC50 [1]: 551 | Efficacy [3]: 102% | metabolized at 0.25 h [2]: 0%

CCOc1ccc(Cc2nc3cc(S(=O)(=O)CC)c(Cl)cc3n2CC2CCCCC2)cc1
EC50 (Cannabinoid receptor 2): 5 nM | Ratio EC50 [1]: 50 | metabolized at 0.25 h [2]: 74%

CC(C)(C)c1nc2cc(S(=O)(=O)c3ccncc3)ccc2n1CC1CCOCC1
EC50 (Cannabinoid receptor 2): 1.2 nM | Ratio EC50 [1]: 215 | metabolized at 0.25 h [2]: 28%

CC(=O)N(C)Cc1ccc(S(=O)(=O)c2ccc3c(c2)nc(C(C)(C)C)n3CC2CCOCC2)cc1
EC50 (Cannabinoid receptor 2): 1.6 nM | Ratio EC50 [1]: 550 | metabolized at 0.25 h [2]: 50%

CC(C)(C)c1nc2cc(S(=O)(=O)CCC#N)ccc2n1CC1CCOCC1
EC50 (Cannabinoid receptor 2): 4 nM | Ratio EC50 [1]: 2110 | metabolized at 0.25 h [2]: 24%

CC(=O)NCCCS(=O)(=O)c1ccc2c(c1)nc(C(C)(C)C)n2CC1CCOCC1
EC50 (Cannabinoid receptor 2): 100 nM | Ratio EC50 [1]: 109

CC(C)(C)c1nc2cc(S(=O)(=O)c3ccccc3)ccc2n1CC1CCCCC1
EC50 (Cannabinoid receptor 2): 1.2 nM | Ratio EC50 [1]: 14 | metabolized at 0.25 h [2]: 23%

CC(C)(C)c1nc2cc(S(=O)(=O)c3ccco3)ccc2n1CC1CCOCC1
EC50 (Cannabinoid receptor 2): 0.4 nM | Ratio EC50 [1]: 40

[O-][S+](Cc1ccc(Cl)cc1)c1cc2nc(C3CCCCC3)[nH]c2cc1Cl (configuration not stated)
EC50 (Cannabinoid receptor 2): < 1 nM | Efficacy (Cannabinoid receptor 2): > 100% | Ratio EC50 [1]: > 1000 | Inhibition (Cytochrome P450 1A2): < 50% | Inhibition (Cytochrome P450 2C19): < 50% | Inhibition (Cytochrome P450 2C9): < 50% | Inhibition (Cytochrome P450 2D6): < 50% | Inhibition (Cytochrome P450 3A4): < 50% | solubility [4]: > 20 µM | solubility [5]: > 20 µM | metabolized at 0.25 h [2]: < 50%

CC(C)(C)c1nc2cc(S(=O)(=O)c3ccnc(F)c3)ccc2n1CC1CCOCC1
EC50 (Cannabinoid receptor 2): 0.8 nM | Ratio EC50 [1]: 495 | metabolized at 0.25 h [2]: 40%

CC(C)(C)c1nc2cc(S(=O)(=O)CCO)ccc2n1CC1CCOCC1
EC50 (Cannabinoid receptor 2): 2.5 nM | Ratio EC50 [1]: 3850 | metabolized at 0.25 h [2]: 6%

CC(C)(C)c1nc2cc(S(=O)(=O)CC3CC3)ccc2n1CC1CCOCC1
EC50 (Cannabinoid receptor 2): 1.3 nM | Ratio EC50 [1]: 121 | metabolized at 0.25 h [2]: 14%

CC(C)(C)c1nc2cc(S(=O)(=O)C(F)(F)c3ccc(C#N)cc3)ccc2n1CC1CCCCC1
EC50 (Cannabinoid receptor 2): 1.6 nM | Ratio EC50 [1]: 62 | metabolized at 0.25 h [2]: 28%

CCOc1ccc(Cc2nc3cc(SCC)c(Cl)cc3n2CC2CCCCC2)cc1
EC50 (Cannabinoid receptor 2): 125 nM | Ratio EC50 [1]: 1.2 | metabolized at 0.25 h [2]: 85%

CCOc1ccc(Cc2nc3cc([S+]([O-])CC)c(Cl)cc3n2CC2CCCCC2)cc1 (configuration not stated)
EC50 (Cannabinoid receptor 2): 6.3 nM | Ratio EC50 [1]: 8.2

CCS(=O)(=O)c1ccc2c(c1)nc(C1CC1)n2CC1CCOCC1
EC50 (Cannabinoid receptor 2): 4 nM | Efficacy (Cannabinoid receptor 2): 109% | Efficacy [3]: 0%

CC(C)(C)c1nc2cc(S(=O)(=O)c3cccc(C#N)c3)ccc2n1CC1CCOCC1
EC50 (Cannabinoid receptor 2): 0.5 nM | Ratio EC50 [1]: 1460 | metabolized at 0.25 h [2]: 61%

CCS(=O)(=O)c1ccc2c(c1)nc(C)n2CC1CCCCC1
EC50 (Cannabinoid receptor 2): 31 nM

CC(C)(C)c1nc2cc(S(=O)(=O)CCCC(F)(F)F)ccc2n1CC1CCOCC1
EC50 (Cannabinoid receptor 2): 1 nM | Ratio EC50 [1]: 285 | metabolized at 0.25 h [2]: 36%

CCNCCCS(=O)(=O)c1ccc2c(c1)nc(C(C)(C)C)n2CC1CCOCC1
EC50 (Cannabinoid receptor 2): 158 nM | Ratio EC50 [1]: 4.3

CC(C)(C)c1nc2cc(S(=O)(=O)c3c(Cl)cccc3Cl)ccc2n1CC1CCOCC1
EC50 (Cannabinoid receptor 2): 0.4 nM | Ratio EC50 [1]: 292 | metabolized at 0.25 h [2]: 96%

CCS(=O)(=O)c1ccc2c(c1)nc(C(C)C)n2CC1CCCCC1
EC50 (Cannabinoid receptor 2): 1.6 nM | Efficacy (Cannabinoid receptor 2): 101% | Efficacy [3]: 99%

CCOc1ccc(Cc2nc3cc(Cl)c([S+]([O-])CC)cc3[nH]2)cc1 (configuration not stated)
EC50 (Cannabinoid receptor 2): > 10000 nM

CC(C)(C)c1nc2cc(S(=O)(=O)CCN)ccc2n1CC1CCOCC1
EC50 (Cannabinoid receptor 2): 10 nM | Ratio EC50 [1]: 912

CC(C)(C)c1nc2cc(S(=O)(=O)c3nccs3)ccc2n1CC1CCOCC1
EC50 (Cannabinoid receptor 2): 0.8 nM | Ratio EC50 [1]: 4 | metabolized at 0.25 h [2]: 25%

CCOc1cc(S(=O)(=O)c2ccc3c(c2)nc(C(C)(C)C)n3CC2CCOCC2)ccn1
EC50 (Cannabinoid receptor 2): 0.3 nM | Ratio EC50 [1]: 4270 | bioavailability [6]: 43% | Kp [7]: 0.1 | Cmax [8]: 731 ng/mL | Tmax [9]: 0.5 h | half-life [10]: 3.4 h | AUC(0-inf) [11]: 2500 ng·h/mL | Activity (Rattus norvegicus): Non-toxic | inhibition at 10 µM (CYP2C19): 76% | inhibition at 10 µM (CYP2C9): 94% | Fa [12]: ≤ 1% | metabolized at 0.25 h [2]: 48%

CC(C)(C)c1nc2cc(S(=O)(=O)c3ccc(C#N)cc3)ccc2n1CC1CCOCC1
EC50 (Cannabinoid receptor 2): 0.6 nM | Ratio EC50 [1]: 191 | metabolized at 0.25 h [2]: 42%

CCOc1ccc(Cc2nc3cc(S(=O)(=O)CC)ccc3n2CC2CCOCC2)cc1
EC50 (Cannabinoid receptor 2): 4 nM | Efficacy (Cannabinoid receptor 2): 44% | Ratio EC50 [1]: 1600 | metabolized at 0.25 h [2]: 34%

Cc1cc(S(=O)(=O)c2ccc3c(c2)nc(C(C)(C)C)n3CC2CCOCC2)ccn1
EC50 (Cannabinoid receptor 2): 1.3 nM | Ratio EC50 [1]: 1620 | metabolized at 0.25 h [2]: 40%

CC(C)(C)c1nc2cc(S(=O)(=O)Cc3ccc(C#N)cc3)ccc2n1CC1CCCCC1
EC50 (Cannabinoid receptor 2): 0.5 nM | Ratio EC50 [1]: 436 | metabolized at 0.25 h [2]: 73%

CC(C)(C)c1nc2cc(S(=O)(=O)CCC(F)(F)F)ccc2n1CC1CCOCC1
EC50 (Cannabinoid receptor 2): 1.3 nM | Ratio EC50 [1]: 394 | metabolized at 0.25 h [2]: 13%
